Test system: skin
Experiment: Skin permeation of UV filters and active agents after topical application
Settings: from Compositions 27 to 31, topically applied

skin permeation of cosmetically acceptable active agents: permeated the skin
SMILES: NC(=O)c1cccnc1 [niacinamide]

From patent US20240407991A1, “LOW PENETRATION SUNSCREEN COMPOSITIONS” (Johnson & Johnson Consumer Inc., priority 2023, published 2024)
